In paper PMC9503608, “An Insight into Symmetrical Cyanine Dyes as Promising Selective Antiproliferative Agents in Caco-2 Colorectal Cancer Cells” (Molecules, 2022):
Read-outs that look alike come from different tables or passages of the source.

Tests used:
[1] = test system: MCF-7 breast adenocarcinoma cell line; test: MTT cell viability assay, MCF-7; assay type: cell-based, human; conditions: Homo sapiens; for viability at 10 µM: single concentration of 10 µM, 72 h, mean ± SD, read-out: cell viability percentage in relation with control, MCF-7
Description: (§1) Caco-2, MCF-7, PC-3, and NHDF cell lines were obtained from the American Type Culture Collection (ATCC) and maintained in 75 cm^2 culture flasks in a humidified atmosphere at 37 °C with 5% carbon dioxide using a LEEC Culture Safe Precision CO2 Incubator. The culture media was renewed every two to three days. The NHDF cell line was cultured in Roswell Park Memorial Institute (RPMI) medium supplemented with 10% of inactivated fetal bovine serum (FBS), 2 mM of L-glutamine, 10 mM of 4-(2-hydroxyethyl)-1-piperazineethanesulfonic acid (HEPES), 1 mM of sodium pyruvate, and 1% of antibiotic/antimycotic mixture (Ab; 10,000 U/mL of penicillin G, […] of streptomycin, and 25 µg/mL of amphotericin B). The PC-3 cell line was also cultured in RPMI 1640 medium supplemented with 10% inactivated FBS and 1% of an antibiotic mixture (Sp; 10,000 U/mL of penicillin G and […] of streptomycin). The Caco-2 and MCF-7 cell lines were grown in Dulbecco’s Modified Eagle Medium (DMEM). Caco-2 was supplemented with 20% of inactivated FBS and 1% of Sp. On the other hand, the MCF-7 medium was complemented with 10% of inactivated FBS and 1% of Ab. All manipulations were performed in a Labculture Class II A2 Biological Safety Cabinet.
(§2) After the near confluency of cultures, cells were detached with a solution of 0.125 g/L trypsin and 0.02 g/L ethylenediaminetetracetic acid (EDTA), counted using the trypan blue method, resuspended, and seeded in 96-well culture plates (100 µL, 2 × 10^4 cells/mL). Following 48 h of adherence, cells were treated with the test solutions and incubated for 72 h. This incubation, as well as the solution manipulations, were performed in an environment protected from light. After the incubation, the medium was replaced with a fresh incomplete culture medium (without FBS and Ab or Sp) and MTT solution (5 mg/mL in phosphate buffer saline (PBS)). After additional incubation for 4 h, the MTT medium was removed, formazan crystals were dissolved in DMSO, and the optical density of each well was measured at 570 nm using a microplate spectrophotometer Bio-Rad xMark. Untreated cells were used as a negative control and 5-FU as the positive control. The results were expressed as the relative cell proliferation relative to the negative control cells. […] To determine the IC50 values, Caco-2, MCF-7, PC-3, and NHDF cells were exposed to increasing concentrations between 0.001 and 100 μM.

Caco-2 cells [2] = test: Morphological analysis by inverted microscopy; assay type: cell-based, human; conditions: 10 µM, 72 h, 20 or 40× magnification, versus untreated cells
Description: After the near confluency of the culture, trypsinisation, and counting, Caco-2 cells were seeded (3 mL; 3 × 10^4 cells/mL) in 35 mm cell culture dishes with treatment for the tissue culture. Following 48 h of adherence, the cells were treated with the test solutions and incubated for 72 h in an environment protected from light. At every 24 h, cellular morphology was verified in an Olympus CKX41 SF inverted microscope with a 10, 20, or 40× objective, and the analysis was based on comparing the cells with and without treatment. Cell imaging was captured using a DC6V Olympus digital camera coupled to the microscope.

Caco-2 cells [3] = test: Apoptosis by propidium iodide staining and flow cytometry; assay type: cell-based, human
Description: (§3) The apoptosis occurrence and influence of the dye 12 on the cell cycle were evaluated using propidium iodide (PI) staining and flow cytometry, as described by Riccardi and Nicolleti. After the near confluency of the culture, trypsinisation, and counting, Caco-2 cells were seeded (2 mL, 3 × 10^4 cells/mL) in 6-well plates. After 48 h of adherence, the cells were treated with the test solutions (3 mL and 5 mL for negative control) and incubated for 72 h. Untreated cells were used as the negative control, and sorbitol and 5-FU [56] were used as positive controls for the apoptosis and cell cycle distribution studies, respectively. After incubation, the supernatant was collected and the cells were washed with PBS and combined with the cells harvested using the trypsin treatment. This cell suspension was maintained on ice and centrifugated, and then the pellet was resuspended in 0.5 mL of PBS. The cells were fixed by adding 4.5 mL of 70% ethanol cooled at −20 °C and were stored at the same temperature. For the cytometry analysis, PBS was added to the fixed cells before centrifugation, and then the ethanolic supernatant was removed. The pellet was resuspended in 0.5 mL of PBS and 0.5 mL of DNA extraction (192 mL of 0.2 M sodium phosphate and 8 mL of […], pH 7.8) was added. After incubation for 5 min, the cells were centrifuged, the supernatant was removed, and the pellet resuspended in 0.3 mL of staining solution (20 µg/mL of PI and 0.2 mg/mL of DNase-free RNase in PBS). Using a FACSCalibur flow cytometer and the 488 nm laser line, a minimum of 20,000 events were recorded. Acquisition and apoptosis analysis was performed using BD CellQuestTM Pro 4.0.2 Software. Cell cycle analysis was performed with ModFit LT 5.0.9 software. To exclude debris and necrotic cells, events with a lower diameter (forward scatter; FCS) and reduced PI fluorescence (FL3) than the hypodiploid apoptotic cells were eliminated. Two independent experiments were performed.

Caco-2 cells [4] = test: Cell cycle distribution by propidium iodide staining and flow cytometry; assay type: cell-based, human; conditions: dye 12 and 5-FU 10 µM 72 h, sorbitol 600 mM 24 h, versus untreated cells
Description: as §3

[5] = test system: normal human dermal fibroblasts (NHDF); test: MTT cell viability assay, NHDF; assay type: cell-based; conditions: Homo sapiens, NHDF, 72 h of incubation, MTT, protected from light
Description: as §1, §2

[6] = MTT cell viability assay, NHDF; assay type: cell-based, human; conditions: human, normal human dermal fibroblasts (NHDF), single concentration of 10 µM, 72 h, mean ± SD; read-out: cell viability percentage in relation with control, NHDF
Description: as §1, §2

[7] = test system: PC-3 prostate adenocarcinoma cell line; test: MTT cell viability assay, PC-3; assay type: cell-based, human; conditions: for viability at 10 µM: single concentration of 10 µM, mean ± SD, read-out: cell viability percentage in relation with control, PC-3
Description: as §1, §2

[8] = MTT cell viability assay, Caco-2; assay type: cell-based, human; conditions: human, 72 h, read-out: SI Caco-2 (selectivity index, cancer versus NHDF)
Description: as §1, §2

[9] = test system: Caco-2 colorectal adenocarcinoma cell line; test: MTT cell viability assay, Caco-2; assay type: cell-based, human; conditions: for IC50: 72 h of incubation, MTT, protected from light; for viability at 10 µM: single concentration of 10 µM, mean ± SD, read-out: cell viability percentage in relation with control, Caco-2
Description: as §1, §2

[10] = Homo sapiens, Caco-2, 72 h, 72 h

Compound	IC50 ([9]; Homo sapiens, Caco-2, 72 h) [µM]	melting point	viability at 10 µM ([1]; MCF7, 72 h) [%]	IC50 ([5]; 72 h) [µM]	viability at 72 h, 10 µM [6] [%]	viability at 10 µM ([7]; Homo sapiens, 72 h, 72 h) [%]	selectivity ratio at 72 h ([8]; Caco-2, Caco-2 versus NHDF)	viability at 10 µM [9, 10] [%]	also measured
O=c1[nH]cc(F)c(=O)[nH]1 [Dye 5-FU, 5-fluorouracil, reference compound]	1.7	–	16 ± 1.8	6.17	12.7 ± 3.99	11.9 ± 2.1	3.6	25.7 ± 1.02	IC50 ([1]; MCF7, 72 h of incubation, MTT, protected from light): 1.24 µM; morphological changes of Caco-2 cells (Caco-2 cells [2]): cell size increase with an enlarged and well-defined nucleus; increase in apoptotic cells relative to untreated cells (Caco-2 cells [3]; Caco-2, 10 µM, 72 h): approximately 10%; effect on cell cycle distribution (Caco-2 cells [4]): significant increase in the rate of Caco-2 cells in the S-phase; IC50 ([7]; Homo sapiens, 72 h of incubation, MTT, protected from light): 1.72 µM; SI PC-3 (selectivity index, cancer versus NHDF) ([7]; PC-3 versus NHDF, 72 h): 3.6
CCN1C(=CC=Cc2[se]c3ccccc3[n+]2CC)[Se]c2ccccc21.[I-] [Dye 16, 3-Ethyl-2-(3-(3-ethylbenzo[d][1,3]selenazol-2(3H)-ylidene)prop-1-en-1-yl)benzo[d][1,3]selenazol-3-ium iodide]	–	272 to 273 °C (dec.)	–	–	4.53 ± 0.39	–	–	–	viability at 10 µM ([1]; MCF7): 1.39 ± 0.68%; IC50 [5]: 0.48 µM; viability at 10 µM ([7]; Homo sapiens, 72 h): 3.92 ± 0.75%; selectivity ratio at 72 h ([8]; Caco-2 versus NHDF): 6.5; IC50 ([9]; Homo sapiens, Caco-2): 0.07 µM; viability at 10 µM ([9]; Homo sapiens, Caco-2, 72 h): 1.25 ± 0.39%
OC[C@@H](O)[C@@H](O)[C@H](O)[C@@H](O)CO [sorbitol, reference compound]	–	–	–	–	–	–	–	–	apoptosis induced (percent of cells) (Caco-2 cells [3]; Caco-2, dye 12 10 µM 72 h, sorbitol 600 mM 24 h): about 28%; effect on cell cycle distribution (Caco-2 cells [4]): did not significantly affect the Caco-2 cell cycle

The next lines start with results.

IC50 ([9]; Homo sapiens, Caco-2, 72 h) [µM]	melting point	Compound	viability at 10 µM ([1]; MCF7, 72 h) [%]	IC50 ([5]; 72 h) [µM]	viability at 72 h, 10 µM [6] [%]	viability at 10 µM ([7]; Homo sapiens, 72 h, 72 h) [%]	selectivity ratio at 72 h ([8]; Caco-2, Caco-2 versus NHDF)	viability at 10 µM [9, 10] [%]	also measured
1.24	164 to 166 °C	CCCCCN1C(=Cc2sc3ccccc3[n+]2CCCCC)Sc2ccccc21.[I-] [Dye 10, 3-Pentyl-2-((3-pentylbenzo[d]thiazol-2(3H)-ylidene)methyl)benzo[d]thiazol-3-ium iodide]	0.87 ± 2.53	0.67	0.1 ± 0.36	0.97 ± 0.26	0.6	1.02 ± 0.42	IC50 [9]: 1 µM; SI Caco-2 (selectivity index, cancer versus NHDF) ([9]; Caco-2 versus NHDF, 72 h): 0.7
1.24	232 to 233 °C	CCCCCCCCCCN1C(=Cc2sc3ccccc3[n+]2CCCCCCCCCC)Sc2ccccc21.[I-] [Dye 11, 3-Decyl-2-((3-decylbenzo[d]thiazol-2(3H)-ylidene)methyl)benzo[d]thiazol-3-ium iodide]	0.1 ± 0.69	0.72	0.15 ± 0.38	0.94 ± 0.11	0.6	0.66 ± 0.44	–
0.58	240 to 241 °C	CN1C(=Cc2ccc3ccccc3[n+]2C)C=Cc2ccccc21.[I-] [Dye 13, 1-Methyl-2-((1-methylquinolin-2(1H)-ylidene)methyl)quinolin-1-ium iodide]	11.8 ± 1.89	0.59	8.37 ± 2.26	7.42 ± 1.27	1	7.81 ± 0.51	–
0.68	229 to 231 °C	CCCN1C=CC(=Cc2cc[n+](CCC)c3ccccc23)c2ccccc21.[I-] [Dye 14, 1-Propyl-4-((1-propylquinolin-4(1H)-ylidene)methyl)quinolin-1-ium iodide]	22.9 ± 0.68	0.99	1.99 ± 0.25	8.03 ± 2.15	1.5	9.84 ± 0.93	–
2.06	227 to 228 °C	CCCCCN1C(=CC=C2CCCC(C=Cc3sc4ccccc4[n+]3CCCCC)=C2Cl)Sc2ccccc21.[I-] [Dye 17, 2-(2-(2-Chloro-3-(2-(3-pentylbenzo[d]thiazol-2(3H)-ylidene)ethylidene)cyclohex-1-en-1-yl)vinyl)-3-pentylbenzo[d]thiazol-3-ium iodide]	11.2 ± 3.11	0.91	2.26 ± 0.1	0.43 ± 0.26	0.4	0.24 ± 0.17	–
